Patent publication US9980943B2, “Methods of treating muscular dystrophy” (BOARD OF REGENTS OF THE NEVADA SYSTEM OF HIGHER EDUCATION, …, priority 2013, dated 2018)

Key:
Type in all cases: cell-based, mouse
[1] = test system: α7 integrin (LacZ reporter in α7+/LacZ myotubes); assay: Myotube α7 integrin FDG assay (Burkin assay in myotubes, 96-well); conditions: for Burkin Assay in Myotubes, value relative to DMSO: SU9516 analogs, 96-well, N=3-6
[2] = test system: α7 integrin (LacZ reporter in α7βgal+/− myoblasts); assay: Myoblast α7+/LacZ integrin FDG assay (Burkin assay in myoblasts, 96-well); conditions: 96-well; for Burkin Assay in Myoblasts, value relative to DMSO: SU9516 analogs, N=3-6; for Burkin Assay in Myoblasts, signal relative to DMSO: α7+/LacZ myoblasts
[3] = test system: β-galactosidase in CMV-LacZ C2C12 myotubes; assay: CMV-LacZ secondary screen in C2C12 myotubes (β-Gal stabilizing assay); conditions: for CMV-LACZ in Myotubes, value relative to DMSO: SU9516 analogs, C2C12 CMV-LacZ, N=2; for CMV-LACZ in Myotubes, signal relative to DMSO: C2C12 CMV-LacZ myotubes, fold relative to DMSO
Summary of the method: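 β-Gal level was the read-out, measured in a clonal C2C12 line expressing LacZ from a CMV promoter. Dose-response curves used six concentrations, 0.5 μM up to 40 μM, with duplicate points.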

[4] = test system: β-galactosidase in CMV-LacZ C2C12 myoblasts; assay: CMV-LacZ secondary screen in C2C12 myoblasts (β-Gal stabilizing assay); conditions: for CMV-LACZ in Myoblasts, value relative to DMSO: SU9516 analogs, C2C12 CMV-LacZ, N=2; for CMV-LACZ in Myoblasts (β-galactosidase activity relative to DMSO): CMV-LacZ C2C12 myoblasts
Summary of the method: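 A secondary screen identifies compounds that stabilize β-gal independently of the native promoter, using CMV-LacZ C2C12 cells. Curves span 0.5–40 μM at six levels, in duplicate.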

O=C1Nc2ccccc2/C1=C/c1cnc(-c2ccccc2)[nH]1 [MLS000834756-01]
Burkin Assay in Myotubes, value relative to DMSO ([1]; 0.5 uM): 1.079
Burkin Assay in Myotubes, value relative to DMSO ([1]; 1 uM): 1.189
Burkin Assay in Myotubes, value relative to DMSO ([1]; 5 uM): 1.095
Burkin Assay in Myotubes, value relative to DMSO ([1]; 10 uM): 0.9214
Burkin Assay in Myotubes, value relative to DMSO ([1]; 20 uM): 0.9495
Burkin Assay in Myotubes, value relative to DMSO ([1]; 40 uM): 0.9189
Burkin Assay in Myoblasts, value relative to DMSO ([2]; 0.5 uM): 1.056
Burkin Assay in Myoblasts, value relative to DMSO ([2]; 1 uM): 1.098
Burkin Assay in Myoblasts, value relative to DMSO ([2]; 5 uM): 1.227
Burkin Assay in Myoblasts, value relative to DMSO ([2]; 10 uM): 1.172
Burkin Assay in Myoblasts, value relative to DMSO ([2]; 20 uM): 1.064
Burkin Assay in Myoblasts, value relative to DMSO ([2]; 40 uM): 1.081
CMV-LACZ in Myotubes, value relative to DMSO ([3]; 0.5 uM): 0.9859
CMV-LACZ in Myotubes, value relative to DMSO ([3]; 1 uM): 1.0059
CMV-LACZ in Myotubes, value relative to DMSO ([3]; 5 uM): 1.1994
CMV-LACZ in Myotubes, value relative to DMSO ([3]; 10 uM): 1.1713
CMV-LACZ in Myotubes, value relative to DMSO ([3]; 20 uM): 2.0788
CMV-LACZ in Myotubes, value relative to DMSO ([3]; 40 uM): 2.2953
CMV-LACZ in Myoblasts, value relative to DMSO ([4]; 0.5 uM): 0.8709
CMV-LACZ in Myoblasts, value relative to DMSO ([4]; 1 uM): 1.0422
CMV-LACZ in Myoblasts, value relative to DMSO ([4]; 5 uM): 1.2652
CMV-LACZ in Myoblasts, value relative to DMSO ([4]; 10 uM): 1.0917
CMV-LACZ in Myoblasts, value relative to DMSO ([4]; 20 uM): 0.8022
CMV-LACZ in Myoblasts, value relative to DMSO ([4]; 40 uM): 1.1889

Cc1ccc(NS(=O)(=O)c2ccc(-c3ccc(=O)[nH]n3)o2)c(C)c1 [MLS001116535-01]
Burkin Assay in Myotubes, α7 integrin LacZ reporter signal relative to DMSO ([1]; 0.5 uM): 0.95
Burkin Assay in Myotubes, α7 integrin LacZ reporter signal relative to DMSO ([1]; 1 uM): 1.003
Burkin Assay in Myotubes, α7 integrin LacZ reporter signal relative to DMSO ([1]; 5 uM): 0.8929
Burkin Assay in Myotubes, α7 integrin LacZ reporter signal relative to DMSO ([1]; 10 uM): 0.8553
Burkin Assay in Myotubes, α7 integrin LacZ reporter signal relative to DMSO ([1]; 20 uM): 0.8993
Burkin Assay in Myotubes, α7 integrin LacZ reporter signal relative to DMSO ([1]; 40 uM): 0.8366
Burkin Assay in Myoblasts, signal relative to DMSO ([2]; 0.5 uM): 1.092
Burkin Assay in Myoblasts, signal relative to DMSO ([2]; 1 uM): 1.111
Burkin Assay in Myoblasts, signal relative to DMSO ([2]; 5 uM): 0.998
Burkin Assay in Myoblasts, signal relative to DMSO ([2]; 10 uM): 0.9386
Burkin Assay in Myoblasts, signal relative to DMSO ([2]; 20 uM): 1.239
Burkin Assay in Myoblasts, signal relative to DMSO ([2]; 40 uM): 1.267
CMV-LACZ in Myotubes, signal relative to DMSO ([3]; 0.5 uM): 1.2552
CMV-LACZ in Myotubes, signal relative to DMSO ([3]; 1 uM): 0.8771
CMV-LACZ in Myotubes, signal relative to DMSO ([3]; 5 uM): 1.0648
CMV-LACZ in Myotubes, signal relative to DMSO ([3]; 10 uM): 1.2856
CMV-LACZ in Myotubes, signal relative to DMSO ([3]; 20 uM): 0.9800
CMV-LACZ in Myotubes, signal relative to DMSO ([3]; 40 uM): 1.0011
CMV-LACZ in Myoblasts (β-galactosidase activity relative to DMSO) ([4]; 0.5 uM): 1.0167
CMV-LACZ in Myoblasts (β-galactosidase activity relative to DMSO) ([4]; 1 uM): 1.1779
CMV-LACZ in Myoblasts (β-galactosidase activity relative to DMSO) ([4]; 5 uM): 1.0944
CMV-LACZ in Myoblasts (β-galactosidase activity relative to DMSO) ([4]; 10 uM): 1.0580
CMV-LACZ in Myoblasts (β-galactosidase activity relative to DMSO) ([4]; 20 uM): 1.1815
CMV-LACZ in Myoblasts (β-galactosidase activity relative to DMSO) ([4]; 40 uM): 1.1263

O=C(CSc1nnc(COc2ccc(Br)cc2)o1)NC1CCCCC1 [MLS001215357-01]
Burkin Assay in Myotubes, α7 integrin LacZ reporter signal relative to DMSO ([1]; 0.5 uM): 0.9366
Burkin Assay in Myotubes, α7 integrin LacZ reporter signal relative to DMSO ([1]; 1 uM): 0.8137
Burkin Assay in Myotubes, α7 integrin LacZ reporter signal relative to DMSO ([1]; 5 uM): 0.9057
Burkin Assay in Myotubes, α7 integrin LacZ reporter signal relative to DMSO ([1]; 10 uM): 0.884
Burkin Assay in Myotubes, α7 integrin LacZ reporter signal relative to DMSO ([1]; 20 uM): 0.756
Burkin Assay in Myotubes, α7 integrin LacZ reporter signal relative to DMSO ([1]; 40 uM): 0.6929
Burkin Assay in Myoblasts, signal relative to DMSO ([2]; 0.5 uM): 1.037
Burkin Assay in Myoblasts, signal relative to DMSO ([2]; 1 uM): 0.93
Burkin Assay in Myoblasts, signal relative to DMSO ([2]; 5 uM): 0.8837
Burkin Assay in Myoblasts, signal relative to DMSO ([2]; 10 uM): 1.489
Burkin Assay in Myoblasts, signal relative to DMSO ([2]; 20 uM): 0.9203
Burkin Assay in Myoblasts, signal relative to DMSO ([2]; 40 uM): 0.5327
CMV-LACZ in Myotubes, signal relative to DMSO ([3]; 0.5 uM): 1.1547
CMV-LACZ in Myotubes, signal relative to DMSO ([3]; 1 uM): 1.1400
CMV-LACZ in Myotubes, signal relative to DMSO ([3]; 5 uM): 1.1407
CMV-LACZ in Myotubes, signal relative to DMSO ([3]; 10 uM): 1.1192
CMV-LACZ in Myotubes, signal relative to DMSO ([3]; 20 uM): 1.3622
CMV-LACZ in Myotubes, signal relative to DMSO ([3]; 40 uM): 1.0667
CMV-LACZ in Myoblasts (β-galactosidase activity relative to DMSO) ([4]; 0.5 uM): 1.1560
CMV-LACZ in Myoblasts (β-galactosidase activity relative to DMSO) ([4]; 1 uM): 1.2686
CMV-LACZ in Myoblasts (β-galactosidase activity relative to DMSO) ([4]; 5 uM): 0.8575
CMV-LACZ in Myoblasts (β-galactosidase activity relative to DMSO) ([4]; 10 uM): 1.0378
CMV-LACZ in Myoblasts (β-galactosidase activity relative to DMSO) ([4]; 20 uM): 1.2467
CMV-LACZ in Myoblasts (β-galactosidase activity relative to DMSO) ([4]; 40 uM): 0.4719
